What was measured:
[1] = Cytotoxicity against human THP-1 cells incubated for 72 hrs by DAPI staining based analysis; format: toxicity, cell-based
Leishmania donovani [2] = experiment: Antileishmanial activity against Leishmania donovani MHOM/IN/1983/AG83 axenic amastigotes assessed as inhibition of growth incubated for 48 hrs by flow cytometric analysis; format: functional, organism-based; conditions: MHOM/IN/1983/AG83, 48 h
[3] = Stability in human plasma assessed as compound remaining measured after 2 hrs by LC-MS/MS analysis; format: ADME, cell-free; conditions: read-out: Stability
[4] = Stability in mouse plasma assessed as compound remaining measured after 2 hrs by LC-MS/MS analysis; format: ADME, cell-free; conditions: read-out: Stability
Leishmania donovani [5] = experiment: Antileishmanial activity against Leishmania donovani MHOM/IN/1983/AG83 axenic amastigotes assessed as inhibition of growth at 30 uM incubated for 48 hrs by flow cytometric analysis relative to control; format: functional
[6] = Lipophilicity, logD of compound in 1-octanol and phosphate buffer at pH 7.4 by HPLC-UV analysis; format: physicochemical; conditions: 1-octanol/phosphate buffer
[7] = Cytotoxicity against human HepG2 cells incubated for 48 hrs by PI staining based flow cytometric analysis; format: toxicity, cell-based
[8] = Metabolic stability in human liver microsomes assessed as half-life preincubated for 10 mins and measured after 60 mins by LC-MS/MS analysis; format: ADME, Microsome
[9] = Metabolic stability in mouse liver microsomes assessed as hepatic blood flow preincubated for 10 mins and measured after 60 mins by LC-MS/MS analysis; format: ADME, Microsome; conditions: read-out: QH
[10] = Selectivity index, ratio of CC50 for cytotoxicity against human HepG2 cells to IC50 for antileishmanial activity against Leishmania donovani MHOM/IN/1983/AG83 axenic amastigotes; format: toxicity, cell-based; conditions: read-out: Ratio CC50/IC50
[11] = Metabolic stability in human liver microsomes assessed as hepatic blood flow preincubated for 10 mins and measured after 60 mins by LC-MS/MS analysis; format: ADME, Microsome; conditions: read-out: QH
[12] = Metabolic stability in mouse liver microsomes assessed as half-life preincubated for 10 mins and measured after 60 mins by LC-MS/MS analysis; format: ADME, Microsome
Leishmania donovani [13] = experiment: Antileishmanial activity against Leishmania donovani; format: functional, organism-based

`COc1cc2c(N3CCCCC3)nc(NCc3ccc(C)cc3)nc2cc1OC1CCCC1` gave a CC50 at 72 h [1] of 3.49 µM and an IC50 (Leishmania donovani [2]) of 5.32 µM.

`CC(C)[N+](C)(CCOC(=O)C1c2ccccc2Oc2ccccc21)C(C)C` [PROPANTHELINE] showed a remaining at 2 h [3] of 1.2% and a remaining at 2 h [4] of 37.2%.

Compound `COc1cc2nc(NCc3ccc(F)cc3)nc(N3CCCCC3)c2cc1OC` has a CC50 at 72 h [1] of 11.1 µM and an IC50 (Leishmania donovani [2]) of 13.7 µM.

`COc1ccc(CNc2nc(N3CCCCC3)c3cc(OC)c(OC4CCCC4)cc3n2)cc1` gave a CC50 at 72 h [1] of 4.56 µM and an IC50 (Leishmania donovani [2]) of 16.6 µM.

`COc1cc2c(N3CCCCC3)nc(N(C)C)nc2cc1O` gave a CC50 at 72 h [1] of 73.4 µM and an inhibition at 30 µM (Leishmania donovani [5]) of about 18.8%.

`COc1cc2c(N3CCCCC3)nc(N)nc2cc1O` gave a CC50 at 72 h [1] of 22.2 µM and an inhibition at 30 µM (Leishmania donovani [5]) of about 13.6%.

In the case of `COc1cc2c(N3CCCCC3)nc(NCc3ccc(F)cc3)nc2cc1OC1CCNC1` (centres undefined), the CC50 at 72 h [1] is reported as 6.3 µM, the IC50 (Leishmania donovani [2]) is reported as 4.66 µM and the logD [6] is reported as 2.37. It also gave a CC50 at 48 h [7] of 10.1 µM, a half-life [8] of over 120 min and a remaining at 2 h [3] of 99%. The hepatic extraction ratio at 1 h [9] was 0.42, the selectivity ratio [10] was 2.18 and the hepatic extraction ratio at 1 h [11] was 0.21. The remaining at 2 h [4] was 99.1% and the half-life [12] was 52.1 min.

Work on `COc1ccc(CNc2nc(N3CCCCC3)c3cc(OC)c(OCc4ccccc4)cc3n2)cc1` yielded a CC50 at 72 h [1] of 19.5 µM, an IC50 (Leishmania donovani [2]) of 10.3 µM and a logD [6] of 2.39. It also gave a half-life [8] of 32.2 min, a remaining at 2 h [3] of 70.2% and a hepatic extraction ratio at 1 h [9] of 0.548. For the same compound, the hepatic extraction ratio at 1 h [11] was 0.499, the remaining at 2 h [4] was 106% and the half-life [12] was 15.5 min.

Work on `CCCCCCCCCCCCCCCCOP(=O)([O-])OCC[N+](C)(C)C` [MILTEFOSINE] yielded a CC50 at 72 h [1] of 25 µM, an IC50 (Leishmania donovani [2]) of 5.37 µM and a CC50 at 48 h [7] of 51.6 µM. For the same compound, the selectivity ratio [10] was 9.38.

`COc1cc2c(N(C)C)nc(NCc3ccc(F)cc3)nc2cc1OC1CCCC1` showed a CC50 at 72 h [1] of 3.79 µM, an IC50 (Leishmania donovani [2]) of 5.67 µM and a logD [6] of 2.46. For the same compound, the half-life [8] was 8.1 min, the remaining at 2 h [3] was 81.2% and the hepatic extraction ratio at 1 h [9] was 0.733. For the same compound, the hepatic extraction ratio at 1 h [11] was 0.799, the remaining at 2 h [4] was 91.6% and the half-life [12] was 6.9 min.

`COc1cc2c(N3CCCCC3)nc(NCc3ccc([N+](=O)[O-])cc3)nc2cc1OC1CCCC1` showed a CC50 at 72 h [1] of 5.68 µM and an IC50 (Leishmania donovani [2]) of 9.63 µM.

`CNc1nc(NCc2ccc(F)cc2)nc2cc(OC3CCCC3)c(OC)cc12` gave a CC50 at 72 h [1] of 2.29 µM, an IC50 (Leishmania donovani [2]) of 1.55 µM and a logD [6] of 2.22. It also gave a half-life [8] of 11.4 min, a remaining at 2 h [3] of 73.2% and a hepatic extraction ratio at 1 h [9] of 0.674. It also gave a hepatic extraction ratio at 1 h [11] of 0.738, a remaining at 2 h [4] of 88.9% and a half-life [12] of 9.1 min.

With `COc1cc2c(N3CCCCC3)nc(NCc3ccc(F)cc3)nc2cc1OCc1ccccc1` the CC50 at 72 h [1] was 26.9 µM and the IC50 (Leishmania donovani [2]) was 10.5 µM.

`COc1cc2c(N3CCCCC3)nc(NC(=O)c3ccc(C(F)(F)F)cc3)nc2cc1OC1CCCC1` gave a CC50 at 72 h [1] of 79 µM and an inhibition at 30 µM (Leishmania donovani [5]) of about 34.5%.

`COc1cc2c(N3CCCCC3)nc(N)nc2cc1OC1CCCC1` gave a CC50 at 72 h [1] of over 100 µM and an IC50 (Leishmania donovani [2]) of 19.4 µM.

`O=c1c(O)c(-c2ccc(O)c(O)c2)oc2cc(O)cc(O)c12` [QUERCETIN] gave a logD [6] of 2.5.

Work on `O=C1CN(C(=O)c2cccc(Nc3ncc(-c4ccc5c(c4)OCO5)cn3)c2)CCN1` yielded an IC50 (Leishmania donovani [13]) of 5 µM.

`COc1cc2c(N(C)C)nc(NCc3ccc(Br)cc3)nc2cc1O` gave an IC50 (Leishmania donovani [2]) of 4.78 µM.

Compound `COc1cc2c(N3CCCCC3)nc(NS(C)(=O)=O)nc2cc1OC1CCCC1` has a CC50 at 72 h [1] of 57.9 µM and an inhibition at 30 µM (Leishmania donovani [5]) of about 5.1%.

Compound `COc1cc2c(N3CCCCC3)nc(NC3CCCCC3)nc2cc1OC1CCCC1` has a CC50 at 72 h [1] of 10.2 µM and an IC50 (Leishmania donovani [2]) of 3.28 µM.

`COc1cc2c(N3CCCCC3)nc(NCc3ccc(Cl)cc3)nc2cc1OC1CCCC1` showed a CC50 at 72 h [1] of 12.2 µM, an IC50 (Leishmania donovani [2]) of 8.13 µM and a logD [6] of 3.14. The half-life [8] was 19.1 min, the remaining at 2 h [3] was 103% and the hepatic extraction ratio at 1 h [9] was 0.519. It also gave a hepatic extraction ratio at 1 h [11] of 0.627, a remaining at 2 h [4] of 92.2% and a half-life [12] of 17.5 min.

In the case of `COc1ccc(-c2cnc(NC(=O)c3cc(-c4ccccn4)n[nH]3)n2C)cc1`, the IC50 (Leishmania donovani [13]) is reported as 1 µM.

With `Clc1ccc(CNc2nc(N3CCCCC3)c3cc4c(cc3n2)OCO4)cc1` the CC50 at 72 h [1] was 13.8 µM, the IC50 (Leishmania donovani [2]) was 13.5 µM and the logD [6] was 2.42. For the same compound, the half-life [8] was 16 min, the remaining at 2 h [3] was 77.5% and the hepatic extraction ratio at 1 h [9] was 0.637. The hepatic extraction ratio at 1 h [11] was 0.668, the remaining at 2 h [4] was 97.4% and the half-life [12] was 10.8 min.

`COc1cc2c(N(C)C)nc(NCc3ccc(Br)cc3)nc2cc1OC1CCNC1` (centres undefined) gave an IC50 (Leishmania donovani [2]) of 3.26 µM.

Reference: ChEMBL document CHEMBL5512633, “Hit-to-lead optimization of 2-aminoquinazolines as anti-microbial agents against Leishmania donovani” (Eur J Med Chem, 2024)
